# Source: patent US12612408B2, “Pyrazolone-fused pyrimidine compound, preparation method for same and applications thereof” (SHANGHAI PHARMACEUTICALS HOLDING CO., LTD., priority 2019, dated 2026)
# Target: T1, WEE1 kinase (Homo sapiens, UniProt P30291)
# T1 construct: purchased CarnaBiosciences, Inc. 05-177
# Experiment: Inhibitory effect of compound on WEE1 kinase in vitro (ELISA)
# Format: biochemical
# Details: ATP concentration of Km
# Protocol: The tested compounds were screened on WEE1 kinase with ATP concentration of Km by ELISA. Compounds were screened on WEE1 kinase to evaluate the kinase inhibitory activity of the tested compounds. In the detection process, the initial concentration of the tested compounds was all selected as 100 nM, and each compound was selected with 6 gradient dilution concentrations, the gradient dilution ratio was 4-fold, and two replicate wells were detected for each concentration, MK1775 was used as the standard control.
# WEE1, purchased from CarnaBiosciences, Inc., Item No. 05-177; dimethyl sulfoxide, purchased from Sigma-Aldrich, Item No. D8418; ATP, purchased from Sigma-Aldrich, Item No. A7699; DTT solution, purchased from Sigma-Aldrich, Item No. 43816; protein tyrosine kinase (PTK) substrate (poly-Glu-Tyr), purchased from Sigma-Aldrich, Item No. P4476; P-Tyr (PY99), purchased from Santa Cruz, Item No. sc-7020; Anti-mouse IgG HRP-linked Antibody, purchased from Santa Cruz, Item No. 7076S; TMB liquid Substrate System, purchased from Sigma-Aldrich, Item No. T0440; Costar Stripwell Microplate No Lid 1×8 Flat Bottom, Certified High Binding, purchased from Sigma-Aldrich, Item No. 42592; 96-well compound plate, purchased from Thermo Scientific, Item No. 267245.
# • 1. Coating substrate: 1) An appropriate volume of substrate storage solution protein tyrosine kinase (PTK) substrate (poly-Glu-Tyr) was taken, diluted 10 times with PBS, and the concentration was diluted from […]. The mixture was added to a high adsorption 96-well plate at 125 μL per well. The plate was placed in an incubator at 37° C. for overnight coating. 2) After 24 hours, the 96-well plate was taken out, the liquid in the 96-well plate was poured out, cleaned with washing buffer for 3 times, and the incubator at 37° C. was inverted and dried for 2 hours. • 2. Compound preparation and transfer: 1) compound dilution: 10 mM of the test compound storage solution was taken, the compound in 96-well compound plate was diluted with DMSO in multiple steps to obtain the initial concentration of 100× compound as the first concentration, and then DMSO was used for 4-fold gradient dilution, for a total of 6 concentrations; after that, 2 μL of the gradient dilution solution was added to 48 μL of 1× reaction buffer respectively to prepare 4× compound; 2) 4× compounds were transferred: 10 μL of 4× compounds from the 96-well compound plate configured in the previous step were transferred into the dried high adsorption 96-well plate; 10 μL of the following liquids were added to the compound-free control wells and ATP-control wells: 2 μL of DMSO was added to 48 μL of 1× reaction buffer. • 3. Enzyme reaction stage: 1) WEE1 kinase and ATP were prepared into 2× enzyme solution and 4×ATP solution respectively with 1× reaction buffer. In this screening, the final concentration of WEE1 kinase was: 0.15 ng/μL and the final concentration of ATP was: […]; 2) 20 μL of enzyme solution of 2 was added to the high adsorption 96-well plate; 3) 10 μL of 4×ATP solution was added to the high adsorption 96-well plate and 10 μL of 1× reaction buffer was added to the ATP-control group; 4) the plate was placed in HERAEUS Multifuge X1R centrifuge at 2000 rpm for 20 s and then placed at room temperature and reacted for 60 min. • 4. Reaction termination stage: 1) the reaction mixture in the plate was poured out, 200 μL of washing buffer was added to each well, and washed for 5 times; the primary antibody P-Tyr (PY99) (dilution ratio 1:2000) was added, 100 μL per well, at room temperature for 30 min. 2) The primary antibody in the plate was poured out, 200 μL of washing buffer was added to each well, and washed for 5 times; the second antibody Anti-mouse IgG HRP-linked Antibody (dilution ratio 1:2000) was added, 100 μL per well, at room temperature for 30 min.
# T1 sequence (P30291 whole entry): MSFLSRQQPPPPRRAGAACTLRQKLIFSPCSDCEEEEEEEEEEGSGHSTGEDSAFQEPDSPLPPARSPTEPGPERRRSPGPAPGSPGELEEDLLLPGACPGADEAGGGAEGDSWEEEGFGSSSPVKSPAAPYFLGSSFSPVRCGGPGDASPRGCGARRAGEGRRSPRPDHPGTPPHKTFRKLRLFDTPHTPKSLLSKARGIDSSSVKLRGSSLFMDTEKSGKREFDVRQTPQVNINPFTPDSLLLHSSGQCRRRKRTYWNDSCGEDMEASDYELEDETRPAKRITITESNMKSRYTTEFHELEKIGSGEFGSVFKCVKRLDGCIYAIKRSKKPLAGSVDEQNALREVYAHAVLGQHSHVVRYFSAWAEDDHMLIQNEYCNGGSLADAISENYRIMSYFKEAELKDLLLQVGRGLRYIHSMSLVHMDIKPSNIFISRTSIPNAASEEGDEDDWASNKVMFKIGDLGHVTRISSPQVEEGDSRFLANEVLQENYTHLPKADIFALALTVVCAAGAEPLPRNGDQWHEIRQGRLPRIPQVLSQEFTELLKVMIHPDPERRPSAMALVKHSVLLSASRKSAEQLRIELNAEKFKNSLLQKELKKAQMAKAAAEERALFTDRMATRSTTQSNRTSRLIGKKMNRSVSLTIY
structure (smiles),measurement,value
"C=CCn1c(=O)c2cnc(Nc3ccc(C4CCC(N5CCC5)CC4)cc3)nc2n1-c1cccc(C(C)(C)O)n1 (single isomer, unassigned) [Compound I-8-1]",IC50,1.52 nM
